According to US20250230193A1, “CYCLIC COMPOUND HAVING SELECTIVE KRAS INHIBITORY EFFECT ON HRAS AND NRAS” (CHUGAI SEIYAKU KABUSHIKI KAISHA, priority 2022, published 2025):

Assays:
[1] = target: GDP-bound HRAS wild-type protein (Homo sapiens, UniProt P01112); experiment: Binding to HRAS by surface plasmon resonance (SPR), Single Cycle Kinetics; details: KD ratio HRAS/KRAS, class symbols
[2] = target: GDP-bound NRAS wild-type protein (Homo sapiens, UniProt P01111); experiment: Binding to NRAS by surface plasmon resonance (SPR), Single Cycle Kinetics; details: KD ratio NRAS/KRAS, class symbols
Chain of GDP-bound NRAS wild-type protein (P01111 whole entry): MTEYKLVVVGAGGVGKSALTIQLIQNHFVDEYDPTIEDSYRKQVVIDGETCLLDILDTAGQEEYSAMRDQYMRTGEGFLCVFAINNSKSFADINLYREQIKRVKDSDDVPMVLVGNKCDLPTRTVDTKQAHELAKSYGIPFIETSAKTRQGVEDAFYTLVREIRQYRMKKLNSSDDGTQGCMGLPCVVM

Chain of GDP-bound HRAS wild-type protein (P01112 whole entry): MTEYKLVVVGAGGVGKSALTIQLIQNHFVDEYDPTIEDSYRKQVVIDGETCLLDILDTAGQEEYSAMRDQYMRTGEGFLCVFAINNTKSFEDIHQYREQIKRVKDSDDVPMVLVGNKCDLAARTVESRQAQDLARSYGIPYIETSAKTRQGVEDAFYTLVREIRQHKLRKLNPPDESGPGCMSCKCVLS

SMILES | HRAS/KRAS (ratio of KD value with respect to GDP-bound HRAS wild-type protein to KD value with respect to KRAS) [1] | NRAS/KRAS (ratio of KD value with respect to GDP-bound NRAS wild-type protein to KD value with respect to KRAS) [2]
CCC[C@H]1C(=O)N[C@@H]([C@@H](C)CC)C(=O)N(C)CC(=O)N(C)[C@H]2C/C=C\CCN(C2=O)[C@@H](Cc2ccc(C(F)(F)F)cc2)C(=O)N(C)CC(=O)N[C@@H](CCc2cc(Cl)c3sccc3c2)C(=O)N2C[C@H](OCC)C[C@H]2C(=O)NC2(CC(C)(C)C2)C(=O)N(C)[C@@H](C2CCCC2)C(=O)N(C)[C@H](C(=O)N(C)C)CC(=O)N1C [PP2946] | A (a compound having 10 or more and less than 20 is denoted as A) | A (a compound having 10 or more and less than 20 is denoted as A)
CCC[C@H]1C(=O)N[C@@H]([C@@H](C)CC)C(=O)N(C)CC(=O)N(C)[C@H]2C/C=C\CCN(C2=O)[C@@H](Cc2ccc(C)cc2)C(=O)N(C)CC(=O)N[C@@H](CCc2cc(Cl)c3sccc3c2)C(=O)N2C[C@H](OCC)C[C@H]2C(=O)NC2(CC(C)(C)C2)C(=O)N(C)[C@@H](C2CCCC2)C(=O)N(C)[C@H](C(=O)N(C)C)CC(=O)N1C [PP2947] | B (a compound having 3 or more and less than 10 is denoted as B) | B (a compound having 3 or more and less than 10 is denoted as B)
CCC[C@H]1C(=O)N[C@@H]([C@@H](C)CC)C(=O)N(C)CC(=O)N(C)[C@H]2C/C=C\CCN(C2=O)[C@@H](Cc2ccc(C(F)(F)F)cc2)C(=O)N(C)CC(=O)N[C@@H](CCc2ccc3sc(F)c(C)c3c2)C(=O)N2C[C@H](OCC)C[C@H]2C(=O)NC2(CC(C)(C)C2)C(=O)N(C)[C@@H](C2CCCC2)C(=O)N(C)[C@H](C(=O)N(C)C)CC(=O)N1C [PP2948] | A (a compound having 10 or more and less than 20 is denoted as A) | A (a compound having 10 or more and less than 20 is denoted as A)
CCC[C@H]1C(=O)N[C@@H]([C@@H](C)CC)C(=O)N(C)CC(=O)N(C)[C@H]2C/C=C\CCN(C2=O)[C@@H](Cc2ccc(C)cc2)C(=O)N(C)CC(=O)N[C@@H](CCc2ccc3sc(F)c(C)c3c2)C(=O)N2C[C@H](OCC)C[C@H]2C(=O)NC2(CC(C)(C)C2)C(=O)N(C)[C@@H](C2CCCC2)C(=O)N(C)[C@H](C(=O)N(C)C)CC(=O)N1C [PP2949] | A (a compound having 10 or more and less than 20 is denoted as A) | A (a compound having 10 or more and less than 20 is denoted as A)
CCC[C@H]1C(=O)N[C@@H]([C@@H](C)CC)C(=O)N(C)CC(=O)N(C)[C@H]2C/C=C\CCN(C2=O)[C@@H](Cc2ccc(C(F)(F)F)cc2)C(=O)N(C)CC(=O)N[C@@H](CCc2cc(Cl)c3c(ccn3C)c2)C(=O)N2C[C@H](OCC)C[C@H]2C(=O)NC2(CC(C)(C)C2)C(=O)N(C)[C@@H](C2CCCC2)C(=O)N(C)[C@H](C(=O)N(C)C)CC(=O)N1C [PP2950] | A (a compound having 10 or more and less than 20 is denoted as A) | A (a compound having 10 or more and less than 20 is denoted as A)
CCC[C@H]1C(=O)N[C@@H]([C@@H](C)CC)C(=O)N(C)CC(=O)N(C)[C@H]2C/C=C\CCN(C2=O)[C@@H](Cc2ccc(C)cc2)C(=O)N(C)CC(=O)N[C@@H](CCc2cc(Cl)c3c(ccn3C)c2)C(=O)N2C[C@H](OCC)C[C@H]2C(=O)NC2(CC(C)(C)C2)C(=O)N(C)[C@@H](C2CCCC2)C(=O)N(C)[C@H](C(=O)N(C)C)CC(=O)N1C [PP2951] | A (a compound having 10 or more and less than 20 is denoted as A) | A (a compound having 10 or more and less than 20 is denoted as A)
CCO[C@@H]1C[C@H]2C(=O)NC3(CC(C)(C)C3)C(=O)N(C)[C@@H](C(CC)CC)C(=O)N(C)[C@H](C(=O)N3CCCCC3)CC(=O)N(C)[C@H]3CCC/C=C/c4ccc(cc4)C[C@@H](C(=O)N(C)CC(=O)N[C@@H](CCc4cc(F)c(C(F)(F)F)c(F)c4)C(=O)N2C1)N1CC/C=C\C[C@@H](C1=O)N(C)C(=O)CN(C)C(=O)[C@H]([C@@H](C)CC)NC3=O [PP2952] | A (a compound having 10 or more and less than 20 is denoted as A) | AA (a compound having 20 or more is denoted as AA)
CCO[C@@H]1C[C@H]2C(=O)NC3(CC(C)(C)C3)C(=O)N(C)[C@@H](C(CC)CC)C(=O)N(C)[C@H](C(=O)N3CCCCC3)CC(=O)N(C)[C@H]3CCC/C=C/c4ccc(cc4)C[C@@H](C(=O)N(C)CC(=O)N[C@@H](CCc4ccc(Cl)c(Cl)c4)C(=O)N2C1)N1CC/C=C\C[C@@H](C1=O)N(C)C(=O)CN(C)C(=O)[C@H]([C@@H](C)CC)NC3=O [PP2953] | A (a compound having 10 or more and less than 20 is denoted as A) | AA (a compound having 20 or more is denoted as AA)
CCO[C@@H]1C[C@H]2C(=O)NC3(CCC3)C(=O)N(C)[C@@H](C3CCCC3)C(=O)N(C)[C@H](C(=O)N3CCCCC3)CC(=O)N(C)[C@H]3CCC/C=C/c4ccc(cc4)C[C@@H](C(=O)N(C)CC(=O)N[C@@H](CCc4cc(F)c(C(F)(F)F)c(F)c4)C(=O)N2C1)N1CC/C=C\C[C@@H](C1=O)N(C)C(=O)CN(C1CC1)C(=O)[C@H]([C@@H](C)CC)NC3=O [PP2954] | A (a compound having 10 or more and less than 20 is denoted as A) | A (a compound having 10 or more and less than 20 is denoted as A)
CCO[C@@H]1C[C@H]2C(=O)NC3(CC(C)(C)C3)C(=O)N(C)[C@@H](C(CC)CC)C(=O)N(C)[C@H](C(=O)N(C)C)CC(=O)N(C)[C@H]3CCC/C=C/c4ccc(cc4)C[C@@H](C(=O)N(C)CC(=O)N[C@@H](CCc4cc(F)c(C(F)(F)F)c(F)c4)C(=O)N2C1)N1CC/C=C\C[C@@H](C1=O)N(C)C(=O)CN(C1CC1)C(=O)[C@H]([C@@H](C)CC)NC3=O [PP2955] | A (a compound having 10 or more and less than 20 is denoted as A) | A (a compound having 10 or more and less than 20 is denoted as A)
CCO[C@@H]1C[C@H]2C(=O)NC3(CCC3)C(=O)N(C)[C@@H](C(CC)CC)C(=O)N(C)[C@H](C(=O)N3CCCCC3)CC(=O)N(C)[C@H]3CCC/C=C/c4ccc(cc4)C[C@@H](C(=O)N(C)CC(=O)N[C@@H](CCc4cc(F)c(C(F)(F)F)c(F)c4)C(=O)N2C1)N1CC/C=C\C[C@@H](C1=O)N(C)C(=O)CN(C1CC1)C(=O)[C@H]([C@@H](C)CC)NC3=O [PP2956] | A (a compound having 10 or more and less than 20 is denoted as A) | AA (a compound having 20 or more is denoted as AA)
CCO[C@@H]1C[C@H]2C(=O)NC3(CCC3)C(=O)N(C)[C@@H](C(CC)CC)C(=O)N(C)[C@H](C(=O)N3CCCC3)CC(=O)N(C)[C@H]3CCC/C=C/c4ccc(cc4)C[C@@H](C(=O)N(C)CC(=O)N[C@@H](CCc4cc(F)c(C(F)(F)F)c(F)c4)C(=O)N2C1)N1CC/C=C\C[C@@H](C1=O)N(C)C(=O)CN(C1CC1)C(=O)[C@H]([C@@H](C)CC)NC3=O [PP2957] | A (a compound having 10 or more and less than 20 is denoted as A) | AA (a compound having 20 or more is denoted as AA)
CCO[C@@H]1C[C@H]2C(=O)NC3(CCC3)C(=O)N(C)[C@@H](C3CCCC3)C(=O)N(C)[C@H](C(=O)N3CCCCC3)CC(=O)N(C)[C@H]3CCC/C=C/c4ccc(cc4)C[C@@H](C(=O)N(C)CC(=O)N[C@@H](CCc4ccc(Cl)c(Cl)c4)C(=O)N2C1)N1CC/C=C\C[C@@H](C1=O)N(C)C(=O)CN(C1CC1)C(=O)[C@H]([C@@H](C)CC)NC3=O [PP2958] | A (a compound having 10 or more and less than 20 is denoted as A) | AA (a compound having 20 or more is denoted as AA)
CCC(CC)[C@H]1C(=O)N(C)[C@H](C(=O)N(C)C)CC(=O)N(C)[C@@H](COC)C(=O)N[C@@H]([C@@H](C)CC)C(=O)N(C)CC(=O)N(C)[C@H]2C/C=C\CCN(C2=O)[C@@H](Cc2ccc(C)cc2)C(=O)N(C)CC(=O)N[C@@H](CCc2cc(F)c(C(F)(F)F)c(F)c2)C(=O)N2CCCCC[C@H]2C(=O)NC2(CC(C)(C)C2)C(=O)N1C [PP2960] | A (a compound having 10 or more and less than 20 is denoted as A) | A (a compound having 10 or more and less than 20 is denoted as A)
CCC(CC)[C@H]1C(=O)N(C)[C@H](C(=O)N(C)C)CC(=O)N(C)[C@@H](COC)C(=O)N[C@@H]([C@@H](C)CC)C(=O)N(C)CC(=O)N(C)[C@H]2C/C=C\CCN(C2=O)[C@@H](Cc2ccc(C(F)(F)F)cc2)C(=O)N(C)CC(=O)N[C@@H](CCc2cc(F)c(C(F)(F)F)c(F)c2)C(=O)N2CC3(CC3)C[C@H]2C(=O)NC2(CC(C)(C)C2)C(=O)N1C [PP2961] | A (a compound having 10 or more and less than 20 is denoted as A) | AA (a compound having 20 or more is denoted as AA)
